# Legend:
# foxtail, giant [1] = experiment: Test A preemergence; format: in vivo, Setaria faberii; conditions: 0 to 100 scale
# Procedure, shortened: (§1)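 After sowing in a sand–loam mix, pots received compound preemergence by directed soil spray, or postemergence once plants reached the one- to two-leaf stage (2–10 cm). Formulation contained surfactant in a non-phytotoxic solvent. Injury was scored visually after ~10 greenhouse days, 0–100 scale.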
# pigweed = experiment: Test A preemergence; format: in vivo, Amaranthus retroflexus; conditions: 0 to 100 scale
# Procedure, shortened: as §1
# wheat [2] = experiment: Test A preemergence; format: in vivo, Triticum aestivum; conditions: preemergence
# Procedure, shortened: as §1
# wheat [3] = experiment: Test A postemergence; format: in vivo, Triticum aestivum
# Procedure, shortened: as §1
# rice = experiment: Test B flood; format: in vivo, Oryza sativa; conditions: 250 g ai/ha, visual rating on 0 to 100 scale (0 no effect, 100 complete control), 13 to 15 days
# Procedure, shortened: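 Plants were grown to the 2-leaf stage, then pots were flooded to 3 cm above the soil and compounds were applied directly into the paddy water. Water depth was held for the whole test; after 13 to 15 days in a greenhouse, injury was visually rated against untreated controls (0 = no effect, 100 = complete control).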
# foxtail, giant [4] = experiment: Test C preemergence; format: in vivo, Setaria faberii
# Procedure, shortened: (§2)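 Seeds sown in loam–sand blend and treated preemergence with test chemicals in non-phytotoxic solvent with surfactant; postemergence plants in peat-based medium, treated at 2–18 cm (1- to 4-leaf stage). Greenhouse 13 to 15 days, then visual rating versus controls, 0 (no effect) to 100 (complete control).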
# johnsongrass = experiment: Test C preemergence; format: in vivo, Sorghum halepense
# Procedure, shortened: as §2
# blackgrass = experiment: Test C postemergence; format: in vivo, Alopecurus myosuroides; conditions: for Blackgrass plant response rating: scale 0 to 100
# Procedure, shortened: as §2
# crabgrass, large = experiment: Test C postemergence; format: in vivo, Digitaria sanguinalis; conditions: for Crabgrass, Large plant response rating: scale 0 to 100
# Procedure, shortened: as §2
# nutsedge, yellow = experiment: Test C postemergence; format: in vivo, Cyperus esculentus; conditions: for Nutsedge, Yellow plant response rating: scale 0 to 100
# Procedure, shortened: as §2
# barnyardgrass = experiment: Test C postemergence; format: in vivo, Echinochloa crus-galli; conditions: for Barnyardgrass plant response rating: scale 0 to 100
# Text: Seeds of plant species selected from blackgrass (Alopecurus myosuroides), ryegrass, Italian (Italian ryegrass, Lolium multiflorum), wheat (winter wheat, Triticum aestivum), galium (catchweed bedstraw, Galium aparine), corn (Zea mays), crabgrass, large (large crabgrass, Digitaria sanguinalis), foxtail, giant (giant foxtail, Setaria faberii), johnsongrass (Sorghum halepense), lambsquarters (Chenopodium album), morningglory (Ipomoea coccinea), nutsedge, yellow (yellow nutsedge, Cyperus esculentus), pigweed (redroot pigweed, Amaranthus retroflexus), ragweed (common ragweed, Ambrosia elation), soybean (Glycine max), barnyardgrass (Echinochloa crus-galli), oilseed rape (Brassica napus), waterhemp (common waterhemp, Amaranthus rudis), oat, wild (wild oat, Avena fatua), kochia (Kochia scoparia), Surinam grass (Brachiaria decumbens), foxtail, green (green foxtail, Setaria viridis), goosegrass (Eleusine indica), bromegrass, downy (downy bromegrass, Bromus tectorum), nightshade (eastern black nightshade, Solanum ptycanthum), cocklebur (common cocklebur, Xanthium strumarium), cupgrass, woolly (woolly cupgrass, Eriochloa villosa), bermudagrass (Cynodon dactylon), sunflower, (common oilseed sunflower, Helianthus annuus), Russian thistle (Salsola kali), and velvetleaf (Abutilon theophrasti) were planted into a blend of loam soil and sand and treated preemergence with test chemicals formulated in a non-phytotoxic solvent mixture which included a surfactant.
# At the same time, plants selected from these crop and weed species and also chickweed (common chickweed, Stellaria media), canarygrass (littleseed canarygrass, Phalaris minor), and deadnettle (henbit deadnettle, Lamium amplexicaule), were planted in pots containing Redi-Earth® planting medium (Scotts Company, 14111 Scottslawn Road, Marysville, Ohio 43041) comprising spaghnum peat moss, vermiculite, wetting agent and starter nutrients and treated with postemergence applications of test chemicals formulated in the same manner. Plants ranged in height from 2 to 18 cm (1- to 4-leaf stage) for postemergence treatments. Treated plants and controls were maintained in a greenhouse for 13 to 15 days, after which time all species were compared to controls and visually evaluated. Plant response ratings, summarized in Table C, are based on a scale of 0 to 100 where 0 is no effect and 100 is complete control. A dash (-) response means no test result.
# velvetleaf = experiment: Test C postemergence; format: in vivo, Abutilon theophrasti
# Procedure, shortened: as §2
# [5] = Preemergence, 500 g ai/ha, 0 no effect, 100 complete control
# [6] = preemergence, 125 g ai/ha, visual injury, approx. 10 days
# [7] = Preemergence, 16 g ai/ha, scale 0 to 100
# [8] = preemergence, 31 g ai/ha, scale 0 to 100 (0 no effect, 100 complete control), 13 to 15 days
# [9] = preemergence, 62 g ai/ha, 13 to 15 days, scale 0 to 100, 0 = no effect, 100 = complete control
# [10] = preemergence, 125 g ai/ha, scale 0 to 100, 0 is no effect, 100 is complete control
# [11] = postemergence, 125 g ai/ha, scale 0 to 100, 0 no effect, 100 complete control
structure (smiles),measurement,setting,value
CCCNC(=O)c1cc(CC)n(Cc2ccnc(C(F)(F)F)c2)n1 [Compound 75],"Foxtail, Giant plant response rating","foxtail, giant [1]; [5]",100
same,"Foxtail, Giant plant response rating","foxtail, giant [1]; [6]",100
same,Pigweed plant response rating,pigweed; [5],100
same,Pigweed plant response rating,pigweed; [6],100
same,Wheat plant response rating,"wheat [2]; 125 g ai/ha, visual injury, 0 to 100 scale, approx. 10 days",80
same,Wheat plant response rating,"wheat [2]; 500 g ai/ha, visual injury after approx. 10 days, 0 to 100 scale (0 no effect, 100 complete control)",100
same,Wheat plant response rating,"wheat [3]; Postemergence, 500 g ai/ha, visual rating after approx. 10 days, 0 to 100 scale (0 no effect, 100 complete control)",90
same,Wheat plant response rating,"wheat [3]; postemergence, 125 g ai/ha, about 10 days, visual rating on 0 to 100 scale (0 no effect, 100 complete control)",80
same,"Plant response rating, Rice",rice,35
same,"Plant response rating, Foxtail, Giant","foxtail, giant [4]; [7]",80
same,"Foxtail, Giant plant response rating","foxtail, giant [4]; [8]",85
same,"Plant response rating, Foxtail, Giant","foxtail, giant [4]; [9]",100
same,"Foxtail, Giant plant response rating","foxtail, giant [4]; [10]",100
same,"Plant response rating, Johnsongrass",johnsongrass; [7],65
same,Johnsongrass plant response rating,johnsongrass; [8],100
same,"Plant response rating, Johnsongrass",johnsongrass; [9],100
same,Johnsongrass plant response rating,johnsongrass; [10],100
same,"Plant response rating (scale of 0 to 100), Blackgrass","blackgrass; Postemergence, 16 g ai/ha",5
same,Blackgrass plant response rating,"blackgrass; Postemergence, 31 g ai/ha",5
same,Blackgrass plant response rating,"blackgrass; postemergence, 62 g ai/ha",10
same,"Plant response rating, Blackgrass",blackgrass; [11],15
same,"Plant response rating (scale of 0 to 100), Crabgrass, Large","crabgrass, large; Postemergence, 16 g ai/ha",20
same,"Crabgrass, Large plant response rating","crabgrass, large; Postemergence, 31 g ai/ha",20
same,"Crabgrass, Large plant response rating","crabgrass, large; postemergence, 62 g ai/ha",25
same,"Plant response rating, Crabgrass, Large","crabgrass, large; [11]",80
same,"Plant response rating (scale of 0 to 100), Nutsedge, Yellow","nutsedge, yellow; Postemergence, 16 g ai/ha",0
same,"Nutsedge, Yellow plant response rating","nutsedge, yellow; Postemergence, 31 g ai/ha",5
same,"Nutsedge, Yellow plant response rating","nutsedge, yellow; postemergence, 62 g ai/ha",5
same,"Plant response rating, Nutsedge, Yellow","nutsedge, yellow; [11]",10
same,"Plant response rating (scale of 0 to 100), Barnyardgrass","barnyardgrass; Postemergence, 16 g ai/ha",5
same,Barnyardgrass plant response rating,"barnyardgrass; Postemergence, 31 g ai/ha",10
same,Barnyardgrass plant response rating,"barnyardgrass; postemergence, 62 g ai/ha",10
same,"Plant response rating, Barnyardgrass",barnyardgrass; [11],35
same,"Plant response rating (scale of 0 to 100), Velvetleaf","velvetleaf; Postemergence, 16 g ai/ha",25
same,Velvetleaf plant response rating,"velvetleaf; postemergence, 62 g ai/ha, scale 0 to 100",35
same,"Plant response rating, Velvetleaf",velvetleaf; [11],40

# — patent US20150105252A1, “SUBSTITUTED PYRAZOLES AS HERBICIDES” (E I DU PONT DE NEMOURS AND COMPANY, priority 2013, published 2015)
